We go through one molecule from article PMC9696068 (2022).

Structures are written as SMILES.

This test has as its system AT11 on 2[G4]-(N3)127/(AT11)34/(Cy5)1 (aptadendrimer) (DNA, G4) TGGTGGTGGTTGTTGTGGTGGTGGTGGT
The test can be described thus: steady-state and time-resolved fluorescence, fluorescence anisotropy. The following applies: K+ 65 mM KCl plus potassium phosphate; 20 mM phosphate pH 6.9, room temperature; 0.5 µM C8, aptadendrimer titrated; dendrimer core may contribute.

Turning to `CN(C)c1ccc2cc3ccc(N(C)C)cc3[n+](CCCCCCCCNC(=O)c3ccc(I)cc3)c2c1`, the binding entry was “yes”.
